Key:
Assay type in all cases: biochemical
[1] = target: T1, JAK3 (Homo sapiens, UniProt P52333); test: JAK3 Inhibition Assay, 33P incorporation; details: enzyme inhibition data (Ki), Table 11
T1 sequence (P52333 1-1124): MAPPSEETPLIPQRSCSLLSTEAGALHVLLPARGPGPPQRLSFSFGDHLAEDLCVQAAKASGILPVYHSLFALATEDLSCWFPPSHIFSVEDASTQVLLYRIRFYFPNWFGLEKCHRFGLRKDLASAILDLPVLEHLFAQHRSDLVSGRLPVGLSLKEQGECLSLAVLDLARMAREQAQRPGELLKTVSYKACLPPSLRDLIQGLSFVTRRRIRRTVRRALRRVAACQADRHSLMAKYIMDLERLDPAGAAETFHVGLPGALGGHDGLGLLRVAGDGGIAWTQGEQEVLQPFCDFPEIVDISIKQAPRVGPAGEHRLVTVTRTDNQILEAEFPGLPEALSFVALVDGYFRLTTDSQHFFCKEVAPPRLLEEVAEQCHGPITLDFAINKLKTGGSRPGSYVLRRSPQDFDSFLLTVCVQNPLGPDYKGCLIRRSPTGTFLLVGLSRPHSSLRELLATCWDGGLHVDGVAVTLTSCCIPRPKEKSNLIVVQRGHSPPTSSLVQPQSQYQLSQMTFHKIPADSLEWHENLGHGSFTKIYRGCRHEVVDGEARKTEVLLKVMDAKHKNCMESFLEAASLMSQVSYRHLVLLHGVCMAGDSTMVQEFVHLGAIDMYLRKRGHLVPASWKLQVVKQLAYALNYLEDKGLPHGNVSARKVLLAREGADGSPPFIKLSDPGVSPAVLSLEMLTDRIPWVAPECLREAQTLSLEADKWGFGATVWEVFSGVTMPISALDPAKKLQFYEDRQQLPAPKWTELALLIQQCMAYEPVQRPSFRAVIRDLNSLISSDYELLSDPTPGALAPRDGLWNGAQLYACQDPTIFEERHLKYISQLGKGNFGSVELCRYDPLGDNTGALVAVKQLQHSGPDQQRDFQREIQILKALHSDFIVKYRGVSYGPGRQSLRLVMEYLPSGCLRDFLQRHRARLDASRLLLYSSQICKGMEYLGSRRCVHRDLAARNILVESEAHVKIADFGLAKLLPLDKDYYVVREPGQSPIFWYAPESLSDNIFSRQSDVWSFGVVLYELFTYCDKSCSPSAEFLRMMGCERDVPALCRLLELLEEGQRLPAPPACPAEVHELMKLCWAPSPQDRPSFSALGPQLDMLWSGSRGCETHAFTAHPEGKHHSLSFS
Outline: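 33P incorporation into 1 μM poly(Glu)4Tyr was counted after TCA stop and glass fiber filtration. The 20 min reaction ran at 25 °C with 1 nM JAK3 and 5 μM ATP (200 uCi/μmole). Buffer was 100 mM HEPES pH 7.4, 10 mM MgCl2, 25 mM NaCl, 1 mM DTT, 0.01% BSA.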

[2] = target: T2, Itk (Homo sapiens, UniProt Q08881); test: ITK Inhibition Assay (Radiometric), radioactive-phosphate incorporation; details: enzyme inhibition data (Ki), Table 11; radiometric or UV assay not stated
T2 sequence (Q08881 1-620): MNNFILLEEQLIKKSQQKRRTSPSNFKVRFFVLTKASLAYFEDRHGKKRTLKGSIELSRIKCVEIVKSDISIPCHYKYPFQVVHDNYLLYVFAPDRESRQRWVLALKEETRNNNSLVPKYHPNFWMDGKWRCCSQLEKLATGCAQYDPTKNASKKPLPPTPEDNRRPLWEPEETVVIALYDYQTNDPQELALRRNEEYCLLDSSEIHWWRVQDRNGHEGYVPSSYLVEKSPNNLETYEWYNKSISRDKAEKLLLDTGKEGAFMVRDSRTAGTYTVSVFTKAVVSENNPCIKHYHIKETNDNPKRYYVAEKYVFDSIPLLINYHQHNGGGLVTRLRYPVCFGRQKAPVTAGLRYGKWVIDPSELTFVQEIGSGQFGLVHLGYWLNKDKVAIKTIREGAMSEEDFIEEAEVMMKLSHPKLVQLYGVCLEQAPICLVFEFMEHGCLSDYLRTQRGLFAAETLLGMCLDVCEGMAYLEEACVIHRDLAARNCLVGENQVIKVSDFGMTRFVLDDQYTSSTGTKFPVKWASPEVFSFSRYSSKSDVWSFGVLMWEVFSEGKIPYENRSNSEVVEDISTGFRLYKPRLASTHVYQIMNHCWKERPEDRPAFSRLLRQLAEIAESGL
Outline: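 Radiometric 33P incorporation into SAM68 peptide (D332-443) with filter capture and scintillation counting; 10 min pre-incubation then 10 min reaction at 25° C. IC50 format: 30 nM Itk, 15 μM ATP, 2 μM peptide, HEPES pH 7.5. Ki(app) format: 50 nM Itk, 7.5 μM ATP, 3 μM peptide, MOPS pH 7.0.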

[3] = target: c-Met (Homo sapiens, UniProt P08581); test: c-Met Inhibition Assay, coupled enzyme system; details: enzyme inhibition data (Ki), Table 11
Chain of c-Met (P08581 25-1390): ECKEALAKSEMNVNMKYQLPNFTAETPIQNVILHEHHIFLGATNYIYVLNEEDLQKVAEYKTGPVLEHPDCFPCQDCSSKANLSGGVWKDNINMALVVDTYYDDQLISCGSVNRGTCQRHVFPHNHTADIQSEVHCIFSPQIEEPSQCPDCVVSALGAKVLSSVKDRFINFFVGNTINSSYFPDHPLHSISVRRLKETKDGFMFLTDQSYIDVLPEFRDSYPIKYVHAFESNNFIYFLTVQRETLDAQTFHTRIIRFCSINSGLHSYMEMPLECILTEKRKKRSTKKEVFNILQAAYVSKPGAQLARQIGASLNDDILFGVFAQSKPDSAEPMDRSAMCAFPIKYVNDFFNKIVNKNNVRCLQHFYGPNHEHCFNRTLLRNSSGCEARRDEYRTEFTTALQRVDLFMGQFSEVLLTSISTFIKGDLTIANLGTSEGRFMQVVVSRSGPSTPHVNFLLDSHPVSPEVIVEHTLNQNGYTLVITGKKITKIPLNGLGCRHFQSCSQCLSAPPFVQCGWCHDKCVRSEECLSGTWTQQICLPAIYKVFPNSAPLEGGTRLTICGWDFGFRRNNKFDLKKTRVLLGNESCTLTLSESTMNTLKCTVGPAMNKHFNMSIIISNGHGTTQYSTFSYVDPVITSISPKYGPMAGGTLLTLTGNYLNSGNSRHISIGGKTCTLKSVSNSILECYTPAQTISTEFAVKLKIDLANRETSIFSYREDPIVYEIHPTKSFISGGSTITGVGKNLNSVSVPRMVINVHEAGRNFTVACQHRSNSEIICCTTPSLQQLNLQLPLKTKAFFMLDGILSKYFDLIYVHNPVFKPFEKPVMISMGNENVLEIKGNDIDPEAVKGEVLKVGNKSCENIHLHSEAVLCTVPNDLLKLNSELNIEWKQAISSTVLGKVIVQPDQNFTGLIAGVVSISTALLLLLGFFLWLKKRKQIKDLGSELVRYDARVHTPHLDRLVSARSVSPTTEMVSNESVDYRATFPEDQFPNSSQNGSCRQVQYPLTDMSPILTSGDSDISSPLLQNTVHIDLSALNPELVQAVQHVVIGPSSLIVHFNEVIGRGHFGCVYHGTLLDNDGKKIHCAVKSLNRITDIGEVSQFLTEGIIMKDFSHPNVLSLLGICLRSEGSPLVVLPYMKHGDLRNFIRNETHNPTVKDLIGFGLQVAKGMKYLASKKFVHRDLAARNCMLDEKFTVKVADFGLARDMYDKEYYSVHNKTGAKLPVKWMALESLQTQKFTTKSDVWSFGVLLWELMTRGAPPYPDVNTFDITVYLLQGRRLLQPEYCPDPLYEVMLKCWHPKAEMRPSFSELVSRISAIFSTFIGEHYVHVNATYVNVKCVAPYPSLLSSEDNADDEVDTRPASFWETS
Outline: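 Pyruvate kinase/lactate dehydrogenase-coupled NADH assay in HEPES pH 7.5 with 80 nM c-Met, 200 μM ATP and 10 μM polyGluTyr at 30° C. Compound (0.006–12.5 μM final, 12-point) preincubated 10 min before ATP start; rates over 10 min gave Ki.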

Structure (SMILES) | Ki [1] [µM] | Ki [2] [µM] | Ki [3] [µM]
Cc1cnc2c(-c3cc(N4CCC(CCc5ccccc5)C4)ncn3)c(N)nn2c1 (stereo not drawn) [Compound V-304] | > 5 | 0.5 to 5 | 0.5 to 5
Nc1nn2cc(-c3ccncc3)cnc2c1-c1cccc(Br)n1 [Compound V-137] | > 5 | 0.5 to 5 | 0.5 to 5
CCN(Cc1ccccc1)C(=O)c1c(N)nn2cc(-c3ccncn3)cnc12 [Compound V-42] | > 5 | 0.5 to 5 | 0.5 to 5
CCCN(CCCN)C(=O)c1cccc(-c2cnc3c(-c4ccccn4)c(N)nn3c2)n1 [Compound V-122] | 0.5 to 5 | < 0.5 | < 0.5
Nc1nn2cc(-c3ccnc(NCCCC4=NCC=N4)c3)cnc2c1-c1ccccn1 [Compound V-250] | 0.5 to 5 | < 0.5 | < 0.5
CN(CCc1ccccn1)C(=O)c1cccc(-c2cnc3c(-c4ccccn4)c(N)nn3c2)n1 [Compound V-100] | > 5 | 0.5 to 5 | < 0.5
CC(C)CN(C)c1ccc(-c2cnc3c(-c4ccccn4)c(N)nn3c2)cn1 [Compound V-172] | > 5 | 0.5 to 5 | 0.5 to 5
Nc1nn2cc(-c3ccnc(N4CCC[C@@H]4CO)c3)cnc2c1-c1ccccn1 [Compound V-251] | > 5 | 0.5 to 5 | < 0.5
Nc1nn2cc(/C=C/c3ccccc3)cnc2c1-c1ccccn1 [Compound V-209] | > 5 | < 0.5 | 0.5 to 5
Nc1nn2cc(-c3ccncn3)cnc2c1-c1nncn1Cc1ccc(Cl)c(Cl)c1 [Compound V-136] | > 5 | 0.5 to 5 | 0.5 to 5
CCOC(=O)C1CCCN(c2ccc(-c3cnc4c(-c5ccccn5)c(N)nn4c3)cn2)C1 (stereo not drawn) [Compound V-167] | > 5 | 0.5 to 5 | < 0.5
Nc1nn2cc(-c3cncnc3)cnc2c1-c1ccccn1 [Compound V-52] | > 5 | 0.5 to 5 | 0.5 to 5
CN(C)CCCc1cnc2c(-c3ccccn3)c(N)nn2c1 [Compound V-316] | > 5 | 0.5 to 5 | 0.5 to 5
Nc1nn2cc(-c3ccccc3O)cnc2c1-c1ccccn1 [Compound V-8] | > 5 | 0.5 to 5 | 0.5 to 5
CC[C@H](CO)Nc1cc(-c2c(N)nn3cc(C)cnc23)ncn1 [Compound V-287] | 0.5 to 5 | 0.5 to 5 | < 0.5
Nc1nn2cc(NC(=O)c3ccccc3)cnc2c1-c1ccccn1 [Compound V-235] | > 5 | 0.5 to 5 | 0.5 to 5
CCOC(=O)c1c(N)nn2cc(-c3ccncn3)cnc12 [Compound V-27] | > 5 | 0.5 to 5 | 0.5 to 5
CCN1CCN(CCCc2cnc3c(-c4ccccn4)c(N)nn3c2)CC1 [Compound V-315] | > 5 | 0.5 to 5 | 0.5 to 5
CCc1ccccc1-c1cnc2c(-c3ccccn3)c(N)nn2c1 [Compound V-9] | > 5 | 0.5 to 5 | 0.5 to 5
CCN(CC)CCCc1cnc2c(-c3ccccn3)c(N)nn2c1 [Compound V-319] | > 5 | 0.5 to 5 | < 0.5
Nc1ccc(CNC(=O)c2cnc3c(-c4ccccn4)c(N)nn3c2)cc1 [Compound V-199] | > 5 | 0.5 to 5 | 0.5 to 5

Structure (SMILES) | Ki [1] [µM] | Ki [2] [µM] | Ki [3] [µM]
Cc1cnc2c(-c3cc(N[C@@H](C)C(C)C)ncn3)c(N)nn2c1 [Compound V-296] | 0.5 to 5 | < 0.5 | < 0.5
CCOC(=O)c1c(N)nn2cc(CCCOC(C)=O)cnc12 [Compound V-48] | > 5 | 0.5 to 5 | 0.5 to 5
CN1CCCN(c2ncccc2-c2cnc3c(-c4ccccn4)c(N)nn3c2)CC1 [Compound V-267] | > 5 | 0.5 to 5 | 0.5 to 5
CCN(C)c1ccc(-c2cnc3c(-c4ccccn4)c(N)nn3c2)cn1 [Compound V-171] | > 5 | 0.5 to 5 | < 0.5
Cc1cnc2c(-c3cc(N4CCCC(CO)C4)ncn3)c(N)nn2c1 (stereo not drawn) [Compound V-340] | 0.5 to 5 | 0.5 to 5 | < 0.5
Cc1cnc2c(-c3cc(NC(C)CO)ncn3)c(N)nn2c1 (stereo not drawn) [Compound V-283] | 0.5 to 5 | 0.5 to 5 | 0.5 to 5
Cc1cnc2c(-c3cc(N[C@H]4CCC[C@@H]4OCc4ccccc4)ncn3)c(N)nn2c1 [Compound V-334] | 0.5 to 5 | 0.5 to 5 | < 0.5
CCCN(CCO)C(=O)c1cccc(-c2cnc3c(-c4ccccn4)c(N)nn3c2)n1 [Compound V-111] | > 5 | 0.5 to 5 | < 0.5
Nc1nn2cc(-c3cccnc3N3CCC(N4CCCC4)CC3)cnc2c1-c1ccccn1 [Compound V-265] | > 5 | 0.5 to 5 | 0.5 to 5
CC(C)(C)OC(=O)N1CCC(CNC(=O)c2cnc3c(-c4ccccn4)c(N)nn3c2)CC1 [Compound V-201] | > 5 | 0.5 to 5 | 0.5 to 5
Nc1nn2cc(-c3cccc(C(=O)N4CCCC(O)C4)n3)cnc2c1-c1ccccn1 (stereo not drawn) [Compound V-140] | > 5 | 0.5 to 5 | < 0.5
CC(C)CN(C)CCCc1cnc2c(-c3ccccn3)c(N)nn2c1 [Compound V-317] | > 5 | 0.5 to 5 | 0.5 to 5
Nc1nn2cc(-c3ccncc3)cnc2c1C(=O)c1ccccc1 [Compound V-131] | 0.5 to 5 | 0.5 to 5 | 0.5 to 5
COc1ccc(-c2cnc3c(N)c(N)nn3c2)cc1 [Compound V-240] | > 5 | 0.5 to 5 | 0.5 to 5
CN(CCN)C(=O)c1cccc(-c2cnc3c(-c4ccccn4)c(N)nn3c2)n1 [Compound V-120] | 0.5 to 5 | < 0.5 | < 0.5
N#CCCN(Cc1ccccc1)C(=O)c1c(N)nn2cc(-c3ccncn3)cnc12 [Compound V-38] | > 5 | 0.5 to 5 | 0.5 to 5
Nc1nn2cc(-c3ccncn3)cnc2c1C(=O)NCc1ccc(F)cc1F [Compound V-32] | > 5 | 0.5 to 5 | 0.5 to 5
CCCN(CCO)c1ccc(-c2cnc3c(-c4ccccn4)c(N)nn3c2)cn1 [Compound V-158] | > 5 | 0.5 to 5 | < 0.5
Nc1nn2cc(-c3ccccc3OCc3ccccc3)cnc2c1-c1ccccn1 [Compound V-56] | > 5 | 0.5 to 5 | 0.5 to 5
Cc1cnc2c(-c3cc(NC4CC5CCC4C5)ncn3)c(N)nn2c1 (stereo not drawn) [Compound V-333] | 0.5 to 5 | < 0.5 | < 0.5
